# From patent publication US20060009470A1, “Method for specifically potentiating N-type Ca2+ channel activity” (Shuji KANEKO, priority 2001, published 2006)
# Tests used:
# Type in all cases: cell-based, rabbit
# [1] = target: T1, α1E channel (voltage-dependent calcium channel α1E with α2δ1 and β1b) (Oryctolagus cuniculus, UniProt Q02343); test: two electrode voltage-clamp, Ba2+ current in Xenopus oocytes expressing α1E channel; conditions: 100 nM test compound; 0 mV, 200 ms test pulse; Xenopus oocyte
# T1 construct: expressed in transfected cells; host or cells: Xenopus laevis oocytes injected with mRNAs
# Method: (§1) Ovary was removed from the abdominal cavity of Xenopus laevis and treated with collagenase to remove follicle covering the oocyte (Kinoshita et al., J. Biol. Chem. 276, 28731-28738 (2001)). A combination of three kinds of mRNAs (16.7 ng each) of voltage-dependent calcium channel subunits α1A, α1B or α1E of rabbit and human α2δ1 and β1b (prepared according to the method described in Kinoshita et al., supra or a similar method) was mixed and injected into the oocyte and this was incubated in modified Birth's saline (88 mM NaCl, 1 mM KCl, 0.41 mM CaCl2, 0.33 mM Ca(NO3)2, 0.82 mM MgSO4, 2.4 mM NaHCO3, 7.5 mM Tris-HCl, 10 U/ml penicillin, 10 μg/ml streptomycin, pH 7.6) at 22° C. for 2 to 4 days.
# (§2) The oocyte prepared in the above was placed in a chamber filled with a Ba^2+-containing recording liquid (10 mM Ba(OH)2, 90 mM NaOH, 2 mM KOH, 5 mM Hepes, 0.3 mM niflumic acid, methanesulfonic acid, pH 7.4) and fixed at −80 mV using two glass electrodes. A test pulse (200 ms width) toward 0 mV was applied at 30 second intervals and the whole-cell membrane current was measured. A +100 mV depolarization prepulse (100 ms width) that ends before 40 ms was applied every other pulse to eliminate the effect of G protein βγ subunit that binds with Ca^2+ channel to suppress opening (Kinoshita et al., supra). […]
# [2] = target: T2, α1B channel (voltage-dependent calcium channel α1B with α2δ1 and β1b) (Oryctolagus cuniculus, UniProt Q05152); test: two electrode voltage-clamp, Ba2+ current in Xenopus oocytes expressing α1B channel
# T2 construct: expressed in transfected cells; host or cells: Xenopus laevis oocytes injected with mRNAs
# T2 sequence (Q05152 whole entry): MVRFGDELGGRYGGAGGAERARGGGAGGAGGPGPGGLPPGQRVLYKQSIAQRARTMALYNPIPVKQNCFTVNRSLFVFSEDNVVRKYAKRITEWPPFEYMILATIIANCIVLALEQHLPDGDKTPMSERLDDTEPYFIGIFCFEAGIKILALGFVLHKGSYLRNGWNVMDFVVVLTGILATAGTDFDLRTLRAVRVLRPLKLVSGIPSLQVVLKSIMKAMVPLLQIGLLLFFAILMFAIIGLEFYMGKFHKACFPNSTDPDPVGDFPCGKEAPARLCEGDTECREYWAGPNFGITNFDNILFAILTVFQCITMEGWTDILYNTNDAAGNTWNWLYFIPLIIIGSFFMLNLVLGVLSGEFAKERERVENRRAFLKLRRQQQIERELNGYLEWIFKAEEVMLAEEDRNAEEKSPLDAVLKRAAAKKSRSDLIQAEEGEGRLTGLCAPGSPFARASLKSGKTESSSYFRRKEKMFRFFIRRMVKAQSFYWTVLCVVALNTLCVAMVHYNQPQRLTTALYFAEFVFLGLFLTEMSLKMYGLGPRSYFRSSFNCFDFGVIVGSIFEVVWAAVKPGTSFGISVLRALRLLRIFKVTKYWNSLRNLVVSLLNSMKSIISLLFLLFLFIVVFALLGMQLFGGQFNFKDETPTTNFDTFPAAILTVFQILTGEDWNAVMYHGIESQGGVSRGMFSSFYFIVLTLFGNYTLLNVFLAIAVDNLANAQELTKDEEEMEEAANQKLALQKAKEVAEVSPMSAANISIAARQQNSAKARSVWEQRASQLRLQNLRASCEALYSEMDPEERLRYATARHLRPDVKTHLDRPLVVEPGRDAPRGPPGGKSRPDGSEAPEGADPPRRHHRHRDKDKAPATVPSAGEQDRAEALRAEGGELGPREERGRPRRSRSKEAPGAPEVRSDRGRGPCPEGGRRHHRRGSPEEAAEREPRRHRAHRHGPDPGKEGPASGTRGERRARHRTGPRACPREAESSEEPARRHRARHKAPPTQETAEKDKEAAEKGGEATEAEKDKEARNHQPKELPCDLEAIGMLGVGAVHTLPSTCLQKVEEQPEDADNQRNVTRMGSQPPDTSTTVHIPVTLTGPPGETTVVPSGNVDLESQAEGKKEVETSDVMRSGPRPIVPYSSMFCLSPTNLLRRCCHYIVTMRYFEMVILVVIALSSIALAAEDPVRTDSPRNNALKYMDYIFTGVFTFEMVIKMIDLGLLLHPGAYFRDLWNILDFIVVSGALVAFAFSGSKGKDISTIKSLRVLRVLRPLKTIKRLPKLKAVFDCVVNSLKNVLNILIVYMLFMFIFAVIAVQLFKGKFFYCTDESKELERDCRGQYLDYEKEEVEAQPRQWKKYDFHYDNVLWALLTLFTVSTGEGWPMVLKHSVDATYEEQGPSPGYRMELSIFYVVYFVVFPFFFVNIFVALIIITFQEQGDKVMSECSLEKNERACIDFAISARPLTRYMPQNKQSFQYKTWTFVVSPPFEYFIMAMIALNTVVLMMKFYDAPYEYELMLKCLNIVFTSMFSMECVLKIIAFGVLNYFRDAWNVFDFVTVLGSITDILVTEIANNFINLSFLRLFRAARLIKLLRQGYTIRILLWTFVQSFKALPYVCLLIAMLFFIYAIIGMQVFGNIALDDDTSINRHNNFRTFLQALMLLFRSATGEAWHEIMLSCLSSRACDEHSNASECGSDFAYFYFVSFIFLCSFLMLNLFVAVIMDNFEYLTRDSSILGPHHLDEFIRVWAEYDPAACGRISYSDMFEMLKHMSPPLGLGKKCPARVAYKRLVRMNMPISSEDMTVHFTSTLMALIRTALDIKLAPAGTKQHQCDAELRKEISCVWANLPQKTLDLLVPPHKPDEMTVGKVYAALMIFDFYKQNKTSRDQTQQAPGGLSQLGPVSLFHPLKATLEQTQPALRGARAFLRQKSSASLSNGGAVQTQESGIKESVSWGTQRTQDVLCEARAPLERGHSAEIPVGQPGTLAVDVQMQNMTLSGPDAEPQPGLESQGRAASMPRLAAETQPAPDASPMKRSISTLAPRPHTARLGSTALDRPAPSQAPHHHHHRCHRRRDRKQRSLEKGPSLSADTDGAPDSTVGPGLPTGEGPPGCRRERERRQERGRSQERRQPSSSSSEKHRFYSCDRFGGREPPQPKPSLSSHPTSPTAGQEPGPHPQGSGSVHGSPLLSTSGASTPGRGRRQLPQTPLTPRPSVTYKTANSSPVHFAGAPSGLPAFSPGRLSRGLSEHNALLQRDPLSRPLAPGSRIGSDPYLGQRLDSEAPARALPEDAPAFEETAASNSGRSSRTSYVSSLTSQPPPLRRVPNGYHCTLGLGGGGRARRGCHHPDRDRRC
# T2 sequence (P54289 25-956 partner): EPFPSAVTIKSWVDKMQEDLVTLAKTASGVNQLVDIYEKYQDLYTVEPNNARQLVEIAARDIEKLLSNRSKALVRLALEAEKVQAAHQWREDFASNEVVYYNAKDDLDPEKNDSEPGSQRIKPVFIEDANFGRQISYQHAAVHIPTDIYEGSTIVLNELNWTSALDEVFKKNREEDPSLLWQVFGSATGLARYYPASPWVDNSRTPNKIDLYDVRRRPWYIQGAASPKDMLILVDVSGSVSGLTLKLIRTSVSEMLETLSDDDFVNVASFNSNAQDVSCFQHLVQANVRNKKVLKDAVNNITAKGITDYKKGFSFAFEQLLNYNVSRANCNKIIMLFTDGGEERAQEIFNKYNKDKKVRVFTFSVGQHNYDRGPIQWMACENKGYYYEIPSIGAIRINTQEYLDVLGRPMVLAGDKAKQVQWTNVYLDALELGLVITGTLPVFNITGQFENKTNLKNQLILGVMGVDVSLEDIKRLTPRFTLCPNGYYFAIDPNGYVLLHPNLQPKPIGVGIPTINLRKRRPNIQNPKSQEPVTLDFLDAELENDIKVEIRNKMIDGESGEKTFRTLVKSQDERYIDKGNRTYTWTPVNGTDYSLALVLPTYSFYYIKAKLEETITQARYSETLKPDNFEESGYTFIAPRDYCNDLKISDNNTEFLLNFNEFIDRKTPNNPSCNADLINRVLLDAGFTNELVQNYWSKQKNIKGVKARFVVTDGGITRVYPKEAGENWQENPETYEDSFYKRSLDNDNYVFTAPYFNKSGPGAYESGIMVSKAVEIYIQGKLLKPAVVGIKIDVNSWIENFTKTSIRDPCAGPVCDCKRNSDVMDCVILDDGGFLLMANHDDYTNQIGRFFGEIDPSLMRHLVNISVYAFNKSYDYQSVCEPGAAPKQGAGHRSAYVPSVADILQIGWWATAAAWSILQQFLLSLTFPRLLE
# T2 sequence (P54289 957-1103 partner): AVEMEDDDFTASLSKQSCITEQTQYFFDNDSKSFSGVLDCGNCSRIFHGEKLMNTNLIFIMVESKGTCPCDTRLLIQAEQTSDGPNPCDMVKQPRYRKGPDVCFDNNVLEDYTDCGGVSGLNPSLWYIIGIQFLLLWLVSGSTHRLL
# T2 sequence (Q02641 whole entry partner): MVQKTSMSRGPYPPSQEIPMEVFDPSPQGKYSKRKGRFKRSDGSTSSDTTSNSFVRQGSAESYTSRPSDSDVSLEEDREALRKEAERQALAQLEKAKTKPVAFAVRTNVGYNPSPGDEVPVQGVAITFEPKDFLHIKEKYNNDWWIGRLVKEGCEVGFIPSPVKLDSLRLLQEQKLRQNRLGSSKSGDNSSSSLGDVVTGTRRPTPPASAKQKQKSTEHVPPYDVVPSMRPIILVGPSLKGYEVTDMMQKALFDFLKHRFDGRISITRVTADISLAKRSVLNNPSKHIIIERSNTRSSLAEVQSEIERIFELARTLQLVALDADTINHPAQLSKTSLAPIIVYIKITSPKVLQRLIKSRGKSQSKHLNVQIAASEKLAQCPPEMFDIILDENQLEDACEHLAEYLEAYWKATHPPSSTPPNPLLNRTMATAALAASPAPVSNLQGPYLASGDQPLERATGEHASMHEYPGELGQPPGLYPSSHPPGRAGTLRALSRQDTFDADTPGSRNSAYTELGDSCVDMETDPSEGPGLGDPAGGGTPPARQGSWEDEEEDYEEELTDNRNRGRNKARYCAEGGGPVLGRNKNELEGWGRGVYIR
# Method: as §1
# The oocyte prepared in the above was placed in a chamber filled with a Ba^2+-containing recording liquid (10 mM Ba(OH)2, 90 mM NaOH, 2 mM KOH, 5 mM Hepes, 0.3 mM niflumic acid, methanesulfonic acid, pH 7.4) and fixed at −80 mV using two glass electrodes. A test pulse (200 ms width) toward 0 mV was applied at 30 second intervals and the whole-cell membrane current was measured. A +100 mV depolarization prepulse (100 ms width) that ends before 40 ms was applied every other pulse to eliminate the effect of G protein βγ subunit that binds with Ca^2+ channel to suppress opening (Kinoshita et al., supra). Based on the Ba^2+ current (IBa) as a Ca^2+ channel current, the leak current was corrected by P/4 protocol. N-(4-Acetyl-1-piperazinyl)-p-fluorobenzamide monohydrate (hereinafter to be also referred to as a test compound) was dissolved in the recording liquid containing Ba^2+ and applied.
# [3] = target: T3, α1A channel (voltage-dependent calcium channel α1A with α2δ1 and β1b) (Oryctolagus cuniculus, UniProt P27884); test: two electrode voltage-clamp, Ba2+ current in Xenopus oocytes expressing α1A channel; conditions: 100 nM test compound; 0 mV, 200 ms test pulse; Xenopus oocyte
# T3 construct: expressed in transfected cells; host or cells: Xenopus laevis oocytes injected with mRNAs
# Method: as §1, §2
structure (smiles),measurement,setting,value
"CC(=O)N1CCN(NC(=O)c2ccc(F)cc2)CC1.O [test compound, N-(4-Acetyl-1-piperazinyl)-p-fluorobenzamide monohydrate]",effect on α1E channel current,[1],almost no effect
same,effect on α1B channel current,"[2]; 100 nM test compound, 0 mV, 200 ms test pulse, Xenopus oocyte",increase in the current
same,influence on the voltage-dependency of α1B channel activation/inactivation,"[2]; 100 nM test compound, varied depolarization stimulating potential and steady inactive state",almost no influence
same,α1B channel current after return into basal solution and washing,"[2]; after 100 nM test compound, washed",fell to the same level as that before the treatment
same,"potentiation of the current amplitude, channel specificity and concentration range","[2]; various concentrations, compared with α1A and α1E channels",α1B channel-specific potentiation of the current amplitude in a relatively narrow concentration range
same,effect on α1A channel current,[3],almost no effect
